According to patent US20190328721A1, “METHOD OF ACTIVATING DENDRITIC CELLS” (KOREA INSTITUTE OF SCIENCE AND TECHNOLOGY, priority 2018, published 2019):

Legend:
CT26.CL25 cell line = test: CT26.CL25 tumor model in immunodeficient nude mice; type: in vivo; settings: 10 mg/kg intravenous
Method: Specifically, immunodeficient nude mice were subcutaneously injected with 1×10^6 cells of CT26.CL25 cell line in order to induce cancer. After the 11 days from the injection of the cancer cells, tumor size was 50-100 mm^3, and Y27632 was administered at a dose of 10 mg/kg continuously for two consecutive days by intravenous injection, followed by a day of rest as a cycle, followed by 3 cycles of 3-day intervals (FIG. 9A). As a negative control group, only phosphate buffered saline (PBS) was administered. The tumor tissues were excised and an ex vivo image was taken. In addition, before the mice were sacrificed, the change in body weight was measured at intervals of 3 days from the 11th day of cancer cell injection in the case of CT26.CL25 cancer model, and the length (L) and width (W) were measured, and the volume of the tumor tissues was measured using the equation described in Example 2-1 (FIG. 9B).

CT26.CL25 cells = test: Anti-cancer immune memory (tumor removal and re-injection); type: in vivo, Balb/c wild-type mice; settings: 10 mg/kg intravenous; compared with PBS control
Method: To confirm whether the ROCK inhibitor induces anti-cancer immune memory, CT26.CL25 cells (1×10^6 cells) were injected into the right flank of Balb/c wild-type mice to induce cancer, and then 10 mg/kg of Y27632 was administered continuously for two consecutive days via intravenous injection, followed by a day of rest as a cycle, followed by 3 cycles of 3-day intervals. After 22nd days from the day of cancer injection, the induced tumor was removed by surgery. One week later, the same cancer cells (7×10^6 cells) were injected to the other flank and the growth of tumor was investigated (FIG. 12A).

[1] = system: bone marrow-derived dendritic cells (BMDCs); test: Phagocytosis of cancer cells by bone marrow-derived dendritic cells in vitro; type: cell-based, mice
Method: (§1) Specifically, the present inventors prepared bone marrow-derived macrophages (BMDMs) differentiated from excised bone marrow of mice using M-CSF and bone marrow-derived dendritic cells (BMDCs) differentiated from excised bone marrow using Flt3L. The degree of differentiation was confirmed by flow cytometry analysis using antibodies specifically binding to F4/80 (BMDM marker) and CD11c (BMDC marker), respectively (FIGS. 2A and 2B).
(§2) The prepared BMDMs and BMDCs were stained with 1 μM CellTracker Deep Red (Thermo Fisher Scientific, USA). 30 μM of Y27632 (Abcam, USA) or 30 μM of fasudil (Selleck Chemicals, USA) was added to each of 15×10^4 cells/ml of the stained macrophages and dendritic cells and incubated at 37° C. for 1 hour. As a negative control, macrophages or dendritic cells that were not incubated with Y27632 and fasudil were used.
(§3) Bone marrow-derived macrophages or dendritic cells prepared in RPMI medium and cancer cell lines stained with 1 μM CellTracker CMFDA (Thermo Fisher Scientific, USA) were co-cultured at about 37° C. for about 2 hours. CT26.CL25, a colon cancer cell line, and B16F10-OVA, a melanoma cell line, were used as the cancer cells.
(§4) Thereafter, the percentage of cancer cells was measured by flow cytometry, and the phagocytosis ratio of macrophages and dendritic cells against cancer cells was calculated. The results are shown in FIGS. 2C to 2F (left: cancer cell line CT26.CL25, right: cancer cell line B16F10-OVA).
(§5) In order to more accurately analyze the phagocytosis of macrophages and dendritic cells against cancer cells according to the treatment of the ROCK inhibitor, the present inventors analyzed phagocytosis of the BMDMs and BMDCs against CT26.CL25 colon cancer cells using the pHrodo-SE dye, which changes in fluorescence depending on pH. When […], the pH of the cancer cells decreased and became red. When treated with Y27632 as described above for the above-mentioned phagocytosis response, the phagocytic activities of both the BMDMs and BMDCs against cancer cells were improved.
(§6) The present inventors performed an experiment to confirm how long the phagocytosis of BMDMs and BMDCs against cancer cells due to the ROCK inhibitor is maintained. Specifically, BMDMs and BMDCs were pretreated with Y27632 for 1 hour, then Y27632 was removed, and immediately after 30 minutes, 1 hour, 2 hours, or 4 hours, the phagocytosis against CT26.CL25 and B16F10-Ova was measured using a flow cytometer. The other experimental conditions were the same as in Example 1-1.
In order to confirm whether the ROCK inhibitor increases phagocytosis against cancer cells by acting on phagocytic cells (BMDMs or BMDCs) themselves, Y27632 was used to pretreat the phagocytic cells or cancer cells for 1 hour, and the phagocytic activity was analyzed using the same procedure described in Example 1-1. […]
Phagocytic activity of bone marrow-derived dendritic cells (BMDCs) differentiated from bone marrow cells against cancer cells was analyzed by treating the BMDCs with ROCK inhibitor Y27632 (30 μM) for 1 hour and then co-cultivating with CT26.CL25 colon cancer cells pretreated with 25 μM of doxorubicin for 24 hours or B16F10-Ova malignant melanoma cells treated with 30 μM of Y27632 for 1 hour and then treated with 2.5 μM doxorubicin (Sigma-Aldrich, USA) for 24 hours by pHrodo SE (Thermo Fisher Scientific, USA) staining (BMDC:Dox-treated B16F10-Ova=1:1). As shown in FIGS. 16A to 16D, it was confirmed that the phagocytic activity of BMDCs induced by doxorubicin were increased in the Y27632-treated group compared to the control group (FIGS. 16A to 16D). […]

[2] = system: bone marrow-derived macrophages (BMDMs); test: Phagocytosis of cancer cells by bone marrow-derived macrophages in vitro; type: cell-based, mice
Method: as §1, §2, §3, §4, §5, §6
In order to confirm whether the ROCK inhibitor increases phagocytosis against cancer cells by acting on phagocytic cells (BMDMs or BMDCs) themselves, Y27632 was used to pretreat the phagocytic cells or cancer cells for 1 hour, and the phagocytic activity was analyzed using the same procedure described in Example 1-1.
The present inventors identified through the above-mentioned results that Y27632 promotes phagocytic cells against cancer cells by inhibiting ROCK in the phagocytic cells. In order to elucidate a more detailed mechanism related to the increase of phagocytic activity by ROCK inhibitors, the present inventors analyzed phagocytosis of the phagocytic cells against cancer cells using blebbistatin (Sigma-Aldrich, USA), which can inhibit the movement of myosin light chain, which exist downstream of ROCK signaling pathway, according to the method described in Example 1-1.
Bone marrow-derived macrophages (BMDMs) treated with 30 μM of fasudil were co-cultured with B16F10-Ova malignant melanoma cells for 1 hour and the phagocytic activity of the BMDMs against apoptotic cancer cells was analyzed by flow cytometry analysis. In order to induce immunogenic apoptosis, 2.5 μM mitoxantrone (Sigma-Aldrich, USA) was administered with B16F10-Ova cells stained with CellTracker Deep Red (Thermo Fisher Scientific, USA) for 4 hours. […]

[3] = 30 μM, 1 hour, co-culture with CT26.CL25 or B16F10-OVA about 2 hours
[4] = cancer cells pretreated for 1 hour
[5] = phagocytic cells pretreated for 1 hour
[6] = pretreated 1 hour, then removed, CT26.CL25 and B16F10-Ova

With `C[C@@H](N)[C@H]1CC[C@H](C(=O)Nc2ccncc2)CC1` [Y27632] the “anti-cancer effect (tumor volume) in nude mice lacking immune function” value (CT26.CL25 cell line) was “only a limited anti-cancer effect”, the “proportion of tumor-free mice after re-injection of cancer cells” value (CT26.CL25 cells) was “significantly increased” and the “phagocytic activity of BMDCs against doxorubicin-treated cancer cells” value ([1]; 30 μM, 1 hour, CT26.CL25 (25 μM doxorubicin) or B16F10-Ova (2.5 μM doxorubicin), 24 hours) was “increased”. The “phagocytic ability of dendritic cells against cancer cells” value [1, 3] was “significantly increased”, the “phagocytic activity of BMDCs against cancer cells (pHrodo-SE dye)” value ([1]; CT26.CL25 colon cancer cells) was “improved” and the “phagocytosis by BMDCs against cancer cells, cancer cells pre-treated” value [1, 4] was “not increased”. For the same molecule, the “phagocytosis against cancer cells, BMDCs pretreated” value [1, 5] was “increased”, the “time for which BMDCs maintain phagocytosis after the pretreatment” value [1, 6] was no more than 1 h and the “phagocytic ability of macrophages against cancer cells” value [2, 3] was “significantly increased”. The “phagocytic activity of BMDMs against cancer cells (pHrodo-SE dye)” value ([2]; CT26.CL25 colon cancer cells) was “improved”, the “phagocytosis by BMDMs against cancer cells, cancer cells pre-treated” value [2, 4] was “not increased” and the “phagocytosis against cancer cells, BMDMs pretreated” value [2, 5] was “increased”. For the same molecule, the “time for which BMDMs maintain phagocytosis after the pretreatment” value [2, 6] was no more than 1 h.
